What is called IC50 is the concentration at which inhibition is half-maximal.

IC50 data for 31 compounds are collected here from US10457655B2, “Compounds and compositions for inhibition of FASN” (FORMA Therapeutics, Inc., priority 2013, dated 2019).

The target of assay [1] is FASN enzyme (Homo sapiens, UniProt P49327). Briefly: Enzymatic Assay for FASN Inhibitors. The assay is classed as biochemical. An outline of the steps:
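40 nM FASN preincubated with compound 60 min at 25° C in HEPES pH 7.3 buffer with 0.04% Triton X-100. Then 20 μM acetyl-CoA, 60 μM malonyl-CoA and 100 μM NADPH added for 90 min, quenched with CPM thiol probe; fluorescence 360/530 nm, IC50 by four-parameter fit.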

In assay [2] the test system is PC3 cells. Briefly: Cell Proliferation Assays for FASN Inhibitors (PC3 cells, MTT). The assay is classed as cell-based. As to conditions: Homo sapiens, PC-3, 96 h. As for the experimental part:
The effects of the FASN inhibitors on cultured cancer cell proliferation were studies with cell proliferation assays. PC3 cells were maintained at standard culture media (F12K media supplemented with 10% fetal bovine serum, 1×MEM nonessential amino acid and 1× penicillin/streptomycin). 2000-3000 cells/100 μL/well was seeded in a 96-well clear culture plate. The cells were incubated overnight in 5% CO2 at 37° C. for attachment. Cell media were removed and replaced with F12K media containing 10% lipid reduced serum and compound. The final DMSO concentration is 0.1%. The cells were maintained in 5% CO2 at 37° C. for 4 days. The viability of cells was determined by MTT assays. The IC50 of a given compound was calculated by fitting the dose response curve with a four parameter logistic equation.

[3] abbreviates: read-out: IC50 (uM) < 0.5, 10% lipid reduced serum, 4 days, Table 3-1.

The structures appear in SMILES notation. Where two headings read alike, the source gives them in different places.

FASN enzyme, sequence (P49327 whole entry): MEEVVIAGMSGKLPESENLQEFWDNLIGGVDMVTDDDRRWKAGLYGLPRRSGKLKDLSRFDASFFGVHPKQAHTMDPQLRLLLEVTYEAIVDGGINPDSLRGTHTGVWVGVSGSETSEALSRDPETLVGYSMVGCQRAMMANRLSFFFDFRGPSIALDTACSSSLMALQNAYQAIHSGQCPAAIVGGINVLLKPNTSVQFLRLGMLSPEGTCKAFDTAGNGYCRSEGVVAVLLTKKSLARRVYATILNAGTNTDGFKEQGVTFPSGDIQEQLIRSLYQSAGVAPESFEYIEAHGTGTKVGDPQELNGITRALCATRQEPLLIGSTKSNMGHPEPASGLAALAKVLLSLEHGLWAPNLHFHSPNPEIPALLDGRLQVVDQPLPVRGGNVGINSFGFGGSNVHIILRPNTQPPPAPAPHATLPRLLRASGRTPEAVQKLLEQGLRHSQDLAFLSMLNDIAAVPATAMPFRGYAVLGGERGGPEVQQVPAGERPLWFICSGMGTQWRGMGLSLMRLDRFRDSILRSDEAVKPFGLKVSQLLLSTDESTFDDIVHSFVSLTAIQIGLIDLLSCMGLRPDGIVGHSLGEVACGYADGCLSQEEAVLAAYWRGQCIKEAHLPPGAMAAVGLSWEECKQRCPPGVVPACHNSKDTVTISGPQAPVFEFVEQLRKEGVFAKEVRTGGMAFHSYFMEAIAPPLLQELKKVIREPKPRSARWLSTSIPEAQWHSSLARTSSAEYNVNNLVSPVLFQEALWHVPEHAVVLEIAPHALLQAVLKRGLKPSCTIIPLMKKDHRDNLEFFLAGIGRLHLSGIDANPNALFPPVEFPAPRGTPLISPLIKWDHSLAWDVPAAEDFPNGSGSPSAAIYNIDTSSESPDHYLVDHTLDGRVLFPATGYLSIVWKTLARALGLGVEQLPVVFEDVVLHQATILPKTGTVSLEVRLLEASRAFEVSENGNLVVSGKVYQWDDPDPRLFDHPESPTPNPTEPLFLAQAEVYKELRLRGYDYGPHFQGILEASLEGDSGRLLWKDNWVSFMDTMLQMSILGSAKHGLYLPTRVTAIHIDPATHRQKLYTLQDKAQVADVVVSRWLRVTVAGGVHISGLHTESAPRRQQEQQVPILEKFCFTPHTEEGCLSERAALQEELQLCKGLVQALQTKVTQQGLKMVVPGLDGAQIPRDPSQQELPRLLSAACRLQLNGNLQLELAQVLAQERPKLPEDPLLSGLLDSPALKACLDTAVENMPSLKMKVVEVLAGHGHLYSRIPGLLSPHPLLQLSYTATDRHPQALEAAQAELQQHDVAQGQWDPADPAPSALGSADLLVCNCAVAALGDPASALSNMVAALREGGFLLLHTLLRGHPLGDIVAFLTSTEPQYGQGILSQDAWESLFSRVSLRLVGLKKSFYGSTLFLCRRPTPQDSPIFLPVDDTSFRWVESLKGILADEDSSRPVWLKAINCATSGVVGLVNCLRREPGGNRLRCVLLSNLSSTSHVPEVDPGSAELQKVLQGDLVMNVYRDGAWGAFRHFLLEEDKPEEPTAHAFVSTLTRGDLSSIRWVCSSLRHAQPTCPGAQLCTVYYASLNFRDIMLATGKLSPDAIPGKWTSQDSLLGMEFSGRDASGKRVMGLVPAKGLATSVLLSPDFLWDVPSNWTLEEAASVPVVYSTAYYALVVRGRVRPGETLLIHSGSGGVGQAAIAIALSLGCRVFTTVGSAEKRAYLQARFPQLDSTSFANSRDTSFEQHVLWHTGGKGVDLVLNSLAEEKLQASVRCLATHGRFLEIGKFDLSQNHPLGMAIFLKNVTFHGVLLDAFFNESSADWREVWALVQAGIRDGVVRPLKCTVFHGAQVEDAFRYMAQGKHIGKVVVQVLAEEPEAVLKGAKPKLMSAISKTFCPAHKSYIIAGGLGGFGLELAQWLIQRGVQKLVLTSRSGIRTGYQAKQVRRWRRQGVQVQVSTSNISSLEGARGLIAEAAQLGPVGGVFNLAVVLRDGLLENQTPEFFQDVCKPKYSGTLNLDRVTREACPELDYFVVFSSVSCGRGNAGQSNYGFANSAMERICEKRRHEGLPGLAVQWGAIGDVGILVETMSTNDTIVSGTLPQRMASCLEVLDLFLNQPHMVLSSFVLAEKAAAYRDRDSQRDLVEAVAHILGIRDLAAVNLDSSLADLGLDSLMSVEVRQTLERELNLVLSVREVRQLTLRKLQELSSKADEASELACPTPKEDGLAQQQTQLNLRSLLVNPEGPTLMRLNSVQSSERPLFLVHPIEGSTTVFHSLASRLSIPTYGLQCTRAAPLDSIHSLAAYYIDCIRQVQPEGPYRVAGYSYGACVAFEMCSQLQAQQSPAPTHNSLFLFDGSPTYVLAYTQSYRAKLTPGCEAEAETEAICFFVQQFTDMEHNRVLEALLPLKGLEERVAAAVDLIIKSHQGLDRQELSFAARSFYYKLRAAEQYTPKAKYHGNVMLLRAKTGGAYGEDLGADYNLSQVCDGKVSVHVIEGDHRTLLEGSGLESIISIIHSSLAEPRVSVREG

Regarding `Cc1cc(C(=O)N2CCN(C(=O)C3(O)CC3)CC2)ccc1-c1ccc2c(ccn2C)c1` [1-[(4-{[3-methyl-4-(1-methyl-1H-indol-5-yl)phenyl]carbonyl}piperazin-1-yl)carbonyl]cyclopropan-1-ol], the IC50 in assay [1] is less than 500 nM; in assay [2] (setting [3]) it was less than 0.5 µM.

On to `Cc1cc(C(=O)N2CCN(C(=O)C3(O)CC3)CC2)ccc1-c1cnc2ccccc2c1` [1-[(4-{[3-methyl-4-(quinolin-3-yl)phenyl]carbonyl}piperazin-1-yl)carbonyl]cyclopropan-1-ol], for which the figures for the IC50 in assay [1] and in assay [2] (setting [3]) were less than 500 nM and less than 0.5 µM, respectively.

As to `Cc1cc(C(=O)N2CCN(C(=O)C3(O)CC3)CC2)ccc1-c1ccc2ncccc2c1` [1-[(4-{[3-methyl-4-(quinolin-6-yl)phenyl]carbonyl}piperazin-1-yl)carbonyl]cyclopropan-1-ol], the IC50 in assay [1] was less than 500 nM; in assay [2] (setting [3]), less than 0.5 µM.

With `O=C(c1ccc(-c2nc3ccccc3s2)cc1)N1CCN(C(=O)C2(O)CC2)CC1` [1-[(4-{[4-(1,3-benzothiazol-2-yl)phenyl]carbonyl}piperazin-1-yl)carbonyl]cyclopropan-1-ol], the figures for the IC50 in assay [1] and in assay [2] (setting [3]) were less than 500 nM and less than 0.5 µM, respectively.

As for `O=C(c1ccc(-c2ccc3scnc3c2)cc1Cl)N1CCN(C(=O)C2(O)CC2)CC1` [1-[(4-{[4-(1,3-benzothiazol-5-yl)-2-chlorophenyl]carbonyl}piperazin-1-yl)carbonyl]cyclopropan-1-ol], the IC50 in assay [1] was less than 500 nM; in assay [2] (setting [3]), less than 0.5 µM.

In the case of `O=C(c1ccc(-c2ccc3scnc3c2)c(Cl)c1)N1CCN(C(=O)C2(O)CC2)CC1` [1-[(4-{[4-(1,3-benzothiazol-5-yl)-3-chlorophenyl]carbonyl}piperazin-1-yl)carbonyl]cyclopropan-1-ol], the results for the IC50 in assay [1] and in assay [2] (setting [3]) were less than 500 nM and less than 0.5 µM, respectively.

As to `O=C(c1ccc(-c2ccc3scnc3c2)c(F)c1)N1CCN(C(=O)C2(O)CC2)CC1` [1-[(4-{[4-(1,3-benzothiazol-5-yl)-3-fluorophenyl]carbonyl}piperazin-1-yl)carbonyl]cyclopropan-1-ol], the values for the IC50 in assay [1] and in assay [2] (setting [3]) were less than 500 nM and less than 0.5 µM, respectively.

As to `Cc1cc(C(=O)N2CCN(C(=O)C3(O)CC3)CC2)ccc1-c1ccc2scnc2c1` [1-[(4-{[4-(1,3-benzothiazol-5-yl)-3-methylphenyl]carbonyl}piperazin-1-yl)carbonyl]cyclopropan-1-ol], the IC50 was less than 500 nM in assay [1] and less than 0.5 µM in assay [2] (setting [3]).

As for `O=C(c1ccc(-c2ccc3scnc3c2)cc1)N1CCN(C(=O)C2(O)CC2)CC1` [1-[(4-{[4-(1,3-benzothiazol-5-yl)phenyl]carbonyl}piperazin-1-yl)carbonyl]cyclopropan-1-ol], the IC50 in assay [1] was less than 500 nM; in assay [2] (setting [3]), less than 0.5 µM.

Take `O=C(c1ccc(-c2ccc3ncsc3c2)cc1)N1CCN(C(=O)C2(O)CC2)CC1` [1-[(4-{[4-(1,3-benzothiazol-6-yl)phenyl]carbonyl}piperazin-1-yl)carbonyl]cyclopropan-1-ol]: the IC50 is less than 500 nM in assay [1] and less than 0.5 µM in assay [2] (setting [3]).

Consider `O=C(c1ccc(-c2nc3ccccc3o2)cc1)N1CCN(C(=O)C2(O)CC2)CC1` [1-[(4-{[4-(1,3-benzoxazol-2-yl)phenyl]carbonyl}piperazin-1-yl)carbonyl]cyclopropan-1-ol], for which the IC50 was less than 500 nM in assay [1] and less than 0.5 µM in assay [2] (setting [3]).

As to `O=C(c1ccc(-c2ccc3ocnc3c2)cc1)N1CCN(C(=O)C2(O)CC2)CC1` [1-[(4-{[4-(1,3-benzoxazol-5-yl)phenyl]carbonyl}piperazin-1-yl)carbonyl]cyclopropan-1-ol], the IC50 was less than 500 nM in assay [1] and less than 0.5 µM in assay [2] (setting [3]).

Take `Cc1nn(C)c2ccc(-c3ccc(C(=O)N4CCN(C(=O)C5(O)CC5)CC4)cc3)cc12` [1-[(4-{[4-(1,3-dimethyl-1H-indazol-5-yl)phenyl]carbonyl}piperazin-1-yl)carbonyl]cyclopropan-1-ol]: the IC50 in assay [1] is less than 500 nM; in assay [2] (setting [3]), less than 0.5 µM.

Consider `O=C(c1ccc(-c2ccc3occc3c2)cc1)N1CCN(C(=O)C2(O)CC2)CC1` [1-[(4-{[4-(1-benzofuran-5-yl)phenyl]carbonyl}piperazin-1-yl)carbonyl]cyclopropan-1-ol], for which the IC50 in assay [1] is less than 500 nM; in assay [2] (setting [3]) it was less than 0.5 µM.

In the case of `Cn1cnc2cc(-c3ccc(C(=O)N4CCN(C(=O)C5(O)CC5)CC4)cc3)ccc21` [1-[(4-{[4-(1-methyl-1H-1,3-benzodiazol-5-yl)phenyl]carbonyl}piperazin-1-yl)carbonyl]cyclopropan-1-ol], the IC50 in assay [1] was less than 500 nM; in assay [2] (setting [3]), less than 0.5 µM.

For `Cn1ncc2ccc(-c3ccc(C(=O)N4CCN(C(=O)C5(O)CC5)CC4)cc3)cc21` [1-[(4-{[4-(1-methyl-1H-indazol-6-yl)phenyl]carbonyl}piperazin-1-yl)carbonyl]cyclopropan-1-ol], the IC50 is less than 500 nM in assay [1] and less than 0.5 µM in assay [2] (setting [3]).

Turning to `Cn1c(-c2ccc(C(=O)N3CCN(C(=O)C4(O)CC4)CC3)cc2)cc2ccccc21` [1-[(4-{[4-(1-methyl-1H-indol-2-yl)phenyl]carbonyl}piperazin-1-yl)carbonyl]cyclopropan-1-ol], the IC50 in assay [1] is less than 500 nM; in assay [2] (setting [3]), less than 0.5 µM.

In the case of `Cn1ccc2cc(-c3ccc(C(=O)N4CCN(C(=O)C5(O)CC5)CC4)c(C(F)(F)F)c3)ccc21` [1-[(4-{[4-(1-methyl-1H-indol-5-yl)-2-(trifluoromethyl)phenyl]carbonyl}piperazin-1-yl)carbonyl]cyclopropan-1-ol], the IC50 in assay [1] is less than 500 nM; in assay [2] (setting [3]), less than 0.5 µM.

Turning to `O=C(c1ccc(-c2cccc3[nH]cnc23)cc1)N1CCN(C(=O)C2(O)CC2)CC1` [1-[(4-{[4-(1H-1,3-benzodiazol-4-yl)phenyl]carbonyl}piperazin-1-yl)carbonyl]cyclopropan-1-ol], the results for the IC50 in assay [1] and in assay [2] (setting [3]) were less than 500 nM and less than 0.5 µM, respectively.

Turning to `O=C(c1ccc(-c2ccc3[nH]cnc3c2)cc1)N1CCN(C(=O)C2(O)CC2)CC1` [1-[(4-{[4-(1H-1,3-benzodiazol-5-yl)phenyl]carbonyl}piperazin-1-yl)carbonyl]cyclopropan-1-ol], the IC50 in assay [1] was less than 500 nM; in assay [2] (setting [3]) it was less than 0.5 µM.

Consider `O=C(c1ccc(-c2n[nH]c3ccccc23)cc1)N1CCN(C(=O)C2(O)CC2)CC1` [1-[(4-{[4-(1H-indazol-3-yl)phenyl]carbonyl}piperazin-1-yl)carbonyl]cyclopropan-1-ol], for which the IC50 in assay [1] is less than 500 nM; in assay [2] (setting [3]), less than 0.5 µM.

On to `O=C(c1ccc(-c2cccc3[nH]ccc23)cc1)N1CCN(C(=O)C2(O)CC2)CC1` [1-[(4-{[4-(1H-indol-4-yl)phenyl]carbonyl}piperazin-1-yl)carbonyl]cyclopropan-1-ol], for which the IC50 was less than 500 nM in assay [1] and less than 0.5 µM in assay [2] (setting [3]).

Regarding `O=C(c1ccc(-c2ccc3[nH]ccc3c2)cc1)N1CCN(C(=O)C2(O)CC2)CC1` [1-[(4-{[4-(1H-indol-5-yl)phenyl]carbonyl}piperazin-1-yl)carbonyl]cyclopropan-1-ol], the results for the IC50 in assay [1] and in assay [2] (setting [3]) were less than 500 nM and less than 0.5 µM, respectively.

Turning to `O=C(c1ccc(-c2ccc3nsnc3c2)cc1)N1CCN(C(=O)C2(O)CC2)CC1` [1-[(4-{[4-(2,1,3-benzothiadiazol-5-yl)phenyl]carbonyl}piperazin-1-yl)carbonyl]cyclopropan-1-ol], the IC50 in assay [1] was less than 500 nM; in assay [2] (setting [3]), less than 0.5 µM.

`O=C(c1ccc(-c2ccc(Cl)cc2Cl)cc1)N1CCN(C(=O)C2(O)CC2)CC1` [1-[(4-{[4-(2,4-dichlorophenyl)phenyl]carbonyl}piperazin-1-yl)carbonyl]cyclopropan-1-ol]: the IC50 is less than 500 nM in assay [1] and no less than 0.5 µM in assay [2] (read-out: IC50 (uM) ≥ 0.5, 10% lipid reduced serum, 4 days, Table 3-2).

As to `COc1ccc2cc(-c3ccc(C(=O)N4CCN(C(=O)C5(O)CC5)CC4)cc3)ccc2n1` [1-[(4-{[4-(2-methoxyquinolin-6-yl)phenyl]carbonyl}piperazin-1-yl)carbonyl]cyclopropan-1-ol], the IC50 was less than 500 nM in assay [1] and less than 0.5 µM in assay [2] (setting [3]).

As to `Cn1cc2cc(-c3ccc(C(=O)N4CCN(C(=O)C5(O)CC5)CC4)cc3)ccc2n1` [1-[(4-{[4-(2-methyl-2H-indazol-5-yl)phenyl]carbonyl}piperazin-1-yl)carbonyl]cyclopropan-1-ol], the IC50 in assay [1] is less than 500 nM; in assay [2] (setting [3]), less than 0.5 µM.

On to `Cn1cc2ccc(-c3ccc(C(=O)N4CCN(C(=O)C5(O)CC5)CC4)cc3)cc2n1` [1-[(4-{[4-(2-methyl-2H-indazol-6-yl)phenyl]carbonyl}piperazin-1-yl)carbonyl]cyclopropan-1-ol], for which the results for the IC50 in assay [1] and in assay [2] (setting [3]) were less than 500 nM and less than 0.5 µM, respectively.

As for `O=C(c1ccc(-c2ccc3n[nH]nc3c2)cc1)N1CCN(C(=O)C2(O)CC2)CC1` [1-[(4-{[4-(2H-1,2,3-benzotriazol-5-yl)phenyl]carbonyl}piperazin-1-yl)carbonyl]cyclopropan-1-ol], the IC50 in assay [1] was less than 500 nM; in assay [2] (setting [3]) it was less than 0.5 µM.

For the compound `COc1c(Cl)cccc1-c1ccc(C(=O)N2CCN(C(=O)C3(O)CC3)CC2)cc1` [1-[(4-{[4-(3-chloro-2-methoxyphenyl)phenyl]carbonyl}piperazin-1-yl)carbonyl]cyclopropan-1-ol], the IC50 in assay [1] was less than 500 nM; in assay [2] (setting [3]) it was less than 0.5 µM.

As for `O=C(c1ccc(-c2ccc(Cl)cc2F)cc1)N1CCN(C(=O)C2(O)CC2)CC1` [1-[(4-{[4-(4-chloro-2-fluorophenyl)phenyl]carbonyl}piperazin-1-yl)carbonyl]cyclopropan-1-ol], the IC50 in assay [1] is less than 500 nM; in assay [2] (setting [3]), less than 0.5 µM.
